Experimental data reported in US10597388B2, “Pyridazinone herbicides” (FMC CORPORATION, priority 2014, dated 2020).

Tests used:
Format in all cases: in vivo
[1] = system: Italian ryegrass (Lolium multiflorum); test: Test E greenhouse herbicide test, pre- and postemergence
Source text: (§1) Seeds of plant species selected from corn (Zea mays), soybean (Glycine max), velvetleaf (Abutilon theophrasti), lambsquarters (Chenopodium album), wild poinsettia (Euphorbia heterophylla), pigweed, palmer (palmer pigweed, Amaranthus palmeri), waterhemp (common waterhemp, Amaranthus rudis), surinam grass (Brachiaria decumbens), crabgrass, large (large crabgrass, Digitaria sanguinalis), crabgrass, Brazilian (Brazilian crabgrass, Digitaria horizontalis), panicum, fall (fall panicum, Panicum dichotomiflorum), foxtail, giant (giant foxtail, Setaria faberii), foxtail, green (green foxtail, Setaria viridis), goosegrass (Eleusine indica), johnsongrass (Sorghum halepense), ragweed (common ragweed, Ambrosia elatior), barnyardgrass (Echinochloa crus-galli), sandbur (southem sandbur, Cenchrus echinatus), arrowleaf sida (Sida rhombifolia), Italian ryegrass (Lolium multiflorum), dayflower (Virginia (VA) dayflower, Commelina virginica), field bindweed (Convolvulus arvensis), momingglory (Ipomoea coccinea), nightshade (eastern black nightshade, Solanum ptycanthum), kochia (Kochia scoparia), nutsedge, yellow (yellow nutsedge, Cyperus esculentus), horseweed (Conyza canadensis), and beggarticks (hairy beggarticks, Bidens pilosa), were planted into a silt loam soil and treated preemergence with test chemicals formulated in a non-phytotoxic solvent mixture which included a surfactant.
(§2) At the same time, plants from these crop and weed species and also waterhemp_RES1, (ALS & Triazine resistant common waterhemp, Amaranthus rudis), and waterhemp_RES2, (ALS & HPPD resistant common waterhemp, Amaranthus rudis) were planted in pots containing Redi-Earth® planting medium (Scotts Company, 14111 Scottslawn Road, Marysville, Ohio 43041) comprising spaghnum peat moss, vermiculite, wetting agent and starter nutrients were treated with postemergence applications of test chemicals formulated in the same manner. Plants ranged in height from 2 to 18 cm for postemergence treatments (1- to 4-leaf stage). Treated plants and controls were maintained in a greenhouse for 14 to 21 d, after which time all species were compared to controls and visually evaluated. Plant response ratings, summarized in Table E, are based on a scale of 0 to 100 where 0 is no effect and 100 is complete control. A dash (-) response means no test result.

[2] = system: barnyardgrass (Echinochloa crus-galli); test: as above
Source text: as §1, §2

[3] = system: beggarticks (hairy beggarticks, Bidens pilosa); test: as above
Source text: as §1, §2

[4] = system: crabgrass, Brazilian (Brazilian crabgrass, Digitaria horizontalis); test: as above
Source text: as §1, §2

[5] = system: crabgrass, large (large crabgrass, Digitaria sanguinalis); test: as above; details: Preemergence
Source text: as §1, §2

[6] = system: dayflower (Virginia (VA) dayflower, Commelina virginica); test: as above
Source text: as §1, §2

[7] = system: goosegrass (Eleusine indica); test: as above; details: Preemergence
Source text: as §1, §2

kochia (Kochia scoparia) = test: as above; details: Preemergence
Source text: as §1, §2

[8] = system: pigweed, palmer (palmer pigweed, Amaranthus palmeri); test: as above
Source text: as §1, §2

[9] = system: ragweed (common ragweed, Ambrosia elatior); test: as above; details: Preemergence
Source text: as §1, §2

[10] = system: sandbur (southem sandbur, Cenchrus echinatus); test: as above
Source text: as §1, §2

soybean (Glycine max) = test: as above
Source text: as §1, §2

[11] = system: waterhemp_RES1 (ALS & Triazine resistant common waterhemp, Amaranthus rudis); test: Test E greenhouse herbicide test, postemergence
Outline: (§3)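 Visual injury scored 0 (no effect) to 100 (complete control) versus untreated plants, 14 to 21 d after treatment in the greenhouse. Plants were treated postemergence at 1- to 4-leaf stage, 2–18 cm height, in peat-moss/vermiculite medium.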

[12] = system: waterhemp_RES2 (ALS & HPPD resistant common waterhemp, Amaranthus rudis); test: Test E greenhouse herbicide test, postemergence
Outline: as §3

[13] = 62 g ai/ha, Postemergence, scale 0 to 100 (0 no effect, 100 complete control)
[14] = 62 g ai/ha, Preemergence, scale 0 to 100 (0 no effect, 100 complete control)
[15] = 125 g ai/ha, Postemergence, scale 0 to 100 (0 no effect, 100 complete control)
[16] = 125 g ai/ha, Preemergence, scale 0 to 100 (0 no effect, 100 complete control)
[17] = 250 g ai/ha, Postemergence, scale 0 to 100 (0 no effect, 100 complete control)
[18] = Postemergence, 16 g ai/ha, visual, scale 0 no effect to 100 complete control
[19] = Postemergence, 31 g ai/ha, visual, scale 0 no effect to 100 complete control
[20] = Preemergence, 16 g ai/ha, scale 0 to 100, 0 no effect, 100 complete control
[21] = Preemergence, 31 g ai/ha, scale 0 to 100, 0 no effect, 100 complete control
[22] = Preemergence, 250 g ai/ha, visual, scale 0 no effect to 100 complete control
[23] = Preemergence, 125 g ai/ha, visual, scale 0 no effect to 100 complete control
[24] = 62 g ai/ha, scale 0 to 100 (0 no effect, 100 complete control)
[25] = 16 g ai/ha, scale 0 to 100, 0 no effect, 100 complete control
[26] = 31 g ai/ha, scale 0 to 100, 0 no effect, 100 complete control
[27] = 125 g ai/ha, visual, scale 0 no effect to 100 complete control
[28] = 250 g ai/ha, visual, scale 0 no effect to 100 complete control
[29] = 125 g ai/ha, scale 0 to 100 (0 no effect, 100 complete control)
[30] = 16 g ai/ha, visual, scale 0 no effect to 100 complete control
[31] = 31 g ai/ha, visual, scale 0 no effect to 100 complete control
[32] = 250 g ai/ha, scale 0 to 100 (0 no effect, 100 complete control)

With `Cc1cc(C)c2sc(C)c(-c3c(O)c(C)nn(C)c3=O)c2c1` [Compound 2, 5-hydroxy-2,6-dimethyl-4-(2,5,7-trimethylbenzo[b]thien-3-yl)-3(2H)-pyridazinone] the “Plant response rating, Ryegrass, Italian” value [1, 13] was 50, the “Plant response rating, Ryegrass, Italian” value [1, 14] was 98 and the “Plant response rating, Ryegrass, Italian” value [1, 15] was 65. For the same compound, the “Plant response rating, Ryegrass, Italian” value [1, 16] was 100, the “Plant response rating, Ryegrass, Italian” value [1, 17] was 75 and the “Plant response rating, Ryegrass, Italian” value [1, 18] was 20. For the same compound, the “Plant response rating, Ryegrass, Italian” value [1, 19] was 30, the “Plant response rating, Ryegrass, Italian” value [1, 20] was 50 and the “Plant response rating, Ryegrass, Italian” value [1, 21] was 95. The “Plant response rating, Ryegrass, Italian” value [1, 22] was 100, the “Plant response rating, Barnyardgrass” value [2, 13] was 25 and the “Plant response rating, Barnyardgrass” value [2, 14] was 0. For the same compound, the “Plant response rating, Barnyardgrass” value [2, 15] was 30, the “Plant response rating, Barnyardgrass” value [2, 17] was 35 and the “Plant response rating, Barnyardgrass” value [2, 18] was 20. The “Plant response rating, Barnyardgrass” value [2, 19] was 20, the “Plant response rating, Barnyardgrass” value [2, 20] was 0 and the “Plant response rating, Barnyardgrass” value [2, 21] was 0. For the same compound, the “Plant response rating, Barnyardgrass” value [2, 23] was 25, the “Plant response rating, Barnyardgrass” value [2, 22] was 70 and the “Plant response rating, Beggarticks” value [3, 13] was 100. For the same compound, the “Plant response rating, Beggarticks” value [3, 14] was 100, the “Plant response rating, Beggarticks” value [3, 15] was 100 and the “Plant response rating, Beggarticks” value [3, 17] was 100. The “Plant response rating, Beggarticks” value [3, 18] was 85, the “Plant response rating, Beggarticks” value [3, 19] was 95 and the “Plant response rating, Beggarticks” value [3, 20] was 90. For the same compound, the “Plant response rating, Beggarticks” value [3, 21] was 100, the “Plant response rating, Beggarticks” value [3, 23] was 100 and the “Plant response rating, Beggarticks” value [3, 22] was 100. The “Plant response rating, Crabgrass, Brazil” value [4, 13] was 0, the “Plant response rating, Crabgrass, Brazil” value [4, 14] was 60 and the “Plant response rating, Crabgrass, Brazil” value [4, 15] was 10. For the same compound, the “Plant response rating, Crabgrass, Brazil” value [4, 17] was 15, the “Plant response rating, Crabgrass, Brazil” value [4, 18] was 0 and the “Plant response rating, Crabgrass, Brazil” value [4, 19] was 10. The “Plant response rating, Crabgrass, Brazil” value [4, 20] was 0, the “Plant response rating, Crabgrass, Brazil” value [4, 21] was 35 and the “Plant response rating, Crabgrass, Brazil” value [4, 23] was 50. For the same compound, the “Plant response rating, Crabgrass, Brazil” value [4, 22] was 100, the “Plant response rating, Crabgrass, Large” value [5, 24] was 0 and the “Plant response rating, Crabgrass, Large” value [5, 25] was 0. The “Plant response rating, Crabgrass, Large” value [5, 26] was 0, the “Plant response rating, Crabgrass, Large” value [5, 27] was 30 and the “Plant response rating, Crabgrass, Large” value [5, 28] was 60. The “Plant response rating, Dayflower, VA” value [6, 13] was 15, the “Plant response rating, Dayflower, VA” value [6, 14] was 20 and the “Plant response rating, Dayflower, VA” value [6, 15] was 65. The “Plant response rating, Dayflower, VA” value [6, 17] was 65, the “Plant response rating, Dayflower, VA” value [6, 18] was 0 and the “Plant response rating, Dayflower, VA” value [6, 19] was 20. For the same compound, the “Plant response rating, Dayflower, VA” value [6, 20] was 0, the “Plant response rating, Dayflower, VA” value [6, 21] was 15 and the “Plant response rating, Dayflower, VA” value [6, 23] was 25. For the same compound, the “Plant response rating, Dayflower, VA” value [6, 22] was 90, the “Plant response rating, Goosegrass” value [7, 24] was 5 and the “Plant response rating, Goosegrass” value [7, 25] was 0. The “Plant response rating, Goosegrass” value [7, 26] was 0, the “Plant response rating, Goosegrass” value [7, 27] was 25 and the “Plant response rating, Goosegrass” value [7, 28] was 25. For the same compound, the “Plant response rating, Kochia” value (kochia (Kochia scoparia); [24]) was 0, the “Plant response rating, Kochia” value (kochia (Kochia scoparia); [25]) was 0 and the “Plant response rating, Kochia” value (kochia (Kochia scoparia); [26]) was 0. For the same compound, the “Plant response rating, Kochia” value (kochia (Kochia scoparia); [27]) was 0, the “Plant response rating, Kochia” value (kochia (Kochia scoparia); [28]) was 40 and the “Plant response rating, Pigweed, Palmer” value [8, 13] was 5. For the same compound, the “Plant response rating, Pigweed, Palmer” value [8, 14] was 50, the “Plant response rating, Pigweed, Palmer” value [8, 15] was 5 and the “Plant response rating, Pigweed, Palmer” value [8, 16] was 90. For the same compound, the “Plant response rating, Pigweed, Palmer” value [8, 17] was 35, the “Plant response rating, Pigweed, Palmer” value [8, 18] was 0 and the “Plant response rating, Pigweed, Palmer” value [8, 19] was 50. For the same compound, the “Plant response rating, Pigweed, Palmer” value [8, 20] was 0, the “Plant response rating, Pigweed, Palmer” value [8, 21] was 20 and the “Plant response rating, Pigweed, Palmer” value [8, 22] was 100. For the same compound, the “Plant response rating, Ragweed” value [9, 24] was 75, the “Plant response rating, Ragweed” value [9, 29] was 98 and the “Plant response rating, Ragweed” value [9, 25] was 20. For the same compound, the “Plant response rating, Ragweed” value [9, 26] was 35, the “Plant response rating, Ragweed” value [9, 28] was 98 and the “Plant response rating, Sandbur” value [10, 13] was 15. The “Plant response rating, Sandbur” value [10, 14] was 15, the “Plant response rating, Sandbur” value [10, 15] was 20 and the “Plant response rating, Sandbur” value [10, 16] was 70. The “Plant response rating, Sandbur” value [10, 17] was 30, the “Plant response rating, Sandbur” value [10, 18] was 5 and the “Plant response rating, Sandbur” value [10, 19] was 10. The “Plant response rating, Sandbur” value [10, 20] was 0, the “Plant response rating, Sandbur” value [10, 21] was 15 and the “Plant response rating, Sandbur” value [10, 22] was 75. For the same compound, the “Plant response rating, Soybean” value (soybean (Glycine max); [13]) was 0, the “Plant response rating, Soybean” value (soybean (Glycine max); [14]) was 0 and the “Plant response rating, Soybean” value (soybean (Glycine max); [15]) was 0. The “Plant response rating, Soybean” value (soybean (Glycine max); [16]) was 15, the “Plant response rating, Soybean” value (soybean (Glycine max); [17]) was 0 and the “Plant response rating, Soybean” value (soybean (Glycine max); [18]) was 0. The “Plant response rating, Soybean” value (soybean (Glycine max); [19]) was 0, the “Plant response rating, Soybean” value (soybean (Glycine max); [20]) was 0 and the “Plant response rating, Soybean” value (soybean (Glycine max); [21]) was 0. For the same compound, the “Plant response rating, Soybean” value (soybean (Glycine max); [22]) was 40, the “Plant response rating, Waterhemp_RES1” value [11, 30] was 65 and the “Plant response rating, Waterhemp_RES1” value [11, 31] was 70. For the same compound, the “Plant response rating, Waterhemp_RES1” value [11, 24] was 70, the “Plant response rating, Waterhemp_RES1” value [11, 29] was 70 and the “Plant response rating, Waterhemp_RES1” value [11, 32] was 100. For the same compound, the “Plant response rating, Waterhemp_RES2” value [12, 30] was 0, the “Plant response rating, Waterhemp_RES2” value [12, 31] was 0 and the “Plant response rating, Waterhemp_RES2” value [12, 24] was 5. The “Plant response rating, Waterhemp_RES2” value [12, 29] was 5 and the “Plant response rating, Waterhemp_RES2” value [12, 32] was 60.
